Measured values taken from article PMC9851200, “Multiparameter phenotypic screening for endogenous TFEB and TFE3 translocation identifies novel chemical series modulating lysosome function” (Autophagy, 2022).
Read-outs that look alike come from different tables or passages of the source.

How the values were obtained:
[1] = tested on: endogenous TFEB; assay: TFEB nuclear translocation, immunocytochemistry high-content imaging; format: cell-based
[2] = tested on: endogenous TFE3; assay: TFE3 nuclear translocation, immunocytochemistry high-content imaging; format: cell-based
[3] = tested on: SH-SY5Y cells; also: reference of the scale not given here
[4] = tested on: SH-SY5Y cells; assay: AK (adenylate kinase) release ToxiLight cytotoxicity assay; also: reference of the scale not given here
[5] = tested on: SH-SY5Y cells; assay: Nuclear count from microscopy images (cellular growth and toxicity); also: reference of the scale not given here
[6] = PKIS2 primary screening, DQ Red BSA intensity
[7] = PKIS2 primary screening, DQ Red BSA spot count
[8] = PKIS2 primary screen, DQ Red BSA intensity
[9] = PKIS2 primary screen, DQ Red BSA spot count

SMILES	TFEB % ([1]; PKIS2 primary screening) [%]	TFE3 % ([2]; PKIS2 primary screening) [%]	DQ Intensity ([3]; PKIS2 primary screening)	DQ Spot ([3]; PKIS2 primary screening)	AK ([4]; PKIS2 primary screening)	Nuclear Count ([5]; PKIS2 primary screening)	other results
CNc1nccc(-c2c(-c3ccc(F)cc3)ncn2C2CCN(C)CC2)n1 [UNC10225274A]	7.89	15.08	105.02	100.15	126.95	122.34	
CS(=O)(=O)CCNCc1nc(-c2ccc3ncnc(Nc4ccc(OCc5ccccc5)c(Cl)c4)c3c2)cs1.Cl [UNC10225279B]	5.66	17.30			96.76	87.19	DQ Intensity [3, 6]: 82.64; DQ Spot [3, 7]: 92.63
Cc1cccc(Nc2nc(N[C@H]3CCCC[C@H]3N)ncc2C(N)=O)c1.Cl [UNC10225280A]	7.12	21.69	129.29	106.20	87.17	90.29	
Cc1nnc(-c2ccc(C)c(-c3ccc(C(=O)Nc4ccc(NS(C)(=O)=O)cc4)cc3)c2)o1 [UNC10225285A]	4.26	14.74	105.08	99.25	85.18	90.38	
C[C@@H](Oc1cc(-n2cnc3ccc(NC(=O)NC(C)(C)C)cc32)sc1C(N)=O)c1ccccc1Cl [UNC10225287A]	3.50	9.35	115.96	109.60	76.21	136.32	
c1ccc(-c2n[nH]cc2-c2ccnc3ccccc23)nc1 [UNC10225289A]					102.26	134.93	TFEB % [1]: 2.12%; TFE3 % [2]: 7.71%; DQ Intensity [3]: 80.70; DQ Spot [3]: 82.58
COc1ccc2cc(-c3nc(-c4ccccc4C(C)C)[nH]c3-c3ccncc3)ccc2c1 [UNC10225291A]	11.56	9.24			85.35	105.82	DQ Intensity [3, 6]: 102.38; DQ Spot [3, 7]: 102.77
COc1cccc(C2=C(N(C)c3ccccc3)C(=O)NC2=O)c1 [UNC10225293A]	4.50	13.51			74.50	78.26	DQ Intensity [3, 6]: 96.89; DQ Spot [3, 7]: 106.44
COc1ccccc1CNC(=O)c1cc(C(=O)c2ccccc2C)c[nH]1 [UNC10225294A]							TFEB % ([1]; PKIS2 primary screen): 4.46%; TFE3 % ([2]; PKIS2 primary screen): 19.95%; DQ Intensity [3, 8]: 126.95; DQ Spot [3, 9]: 127.30; AK ([4]; PKIS2 primary screen): 95.17; Nuclear Count ([5]; PKIS2 primary screen): 105.84
Cn1cc(-c2ccc3c(c2)CCN3C(=O)Cc2cccc(F)c2)c2c(N)ncnc21 [UNC10225297A]	6.82	15.69	118.40	112.51	109.17	104.97	
NS(=O)(=O)c1cccc(N/C=C2\C(=O)Nc3ccc(S(=O)(=O)Cc4c(Cl)cccc4Cl)cc32)c1 [UNC10225298A]							TFEB % ([1]; PKIS2 primary screen): 5.78%; TFE3 % ([2]; PKIS2 primary screen): 5.33%; DQ Intensity [3, 8]: 100.02; DQ Spot [3, 9]: 99.79; AK ([4]; PKIS2 primary screen): 117.06; Nuclear Count ([5]; PKIS2 primary screen): 112.41
Nc1nc(-c2ccccc2F)c(-c2ccnc3ccccc23)s1 [UNC10225301A]	2.45	14.12			75.40	129.96	DQ Intensity [3, 6]: 64.84; DQ Spot [3, 7]: 87.10
CCC(CC)(CC)n1cnc2c(N)ncnc21 [UNC10225302A]	11.64	9.37	92.29	100.17	115.78	100.18	
COc1cccc2c(-c3ccncc3)c(-c3ccc(F)cc3)nn12 [UNC10225305A]	7.57	7.73			95.93	99.48	DQ Intensity [3, 6]: 96.09; DQ Spot [3, 7]: 98.66
Cl.Cl.NCC(NC(=O)c1cc(-c2cccnc2)c(-c2ccnc3[nH]ccc23)s1)c1ccccc1 (stereo not drawn) [UNC10225315A]	2.45	8.64			87.17	113.28	DQ Intensity [3, 6]: 78.29; DQ Spot [3, 7]: 90.57
COc1cc(Nc2nccc(-c3c(-c4cccc(NC(=O)c5c(F)cccc5F)c4)nn4ccccc34)n2)cc(OC)c1OC [UNC10225318A]	6.03	5.80	105.65	109.19	96.57	94.38	
Fc1ccc(-c2ncn(CCCN3CCOCC3)c2-c2cccnc2)cc1 [UNC10225320A]	7.10	16.30			125.08	104.41	DQ Intensity [3, 6]: 94.06; DQ Spot [3, 7]: 100.66

SMILES	TFEB % ([1]; PKIS2 primary screening) [%]	TFE3 % ([2]; PKIS2 primary screening) [%]	DQ Intensity ([3]; PKIS2 primary screening)	DQ Spot ([3]; PKIS2 primary screening)	AK ([4]; PKIS2 primary screening)	Nuclear Count ([5]; PKIS2 primary screening)	other results
Cc1ccc2c(-c3ccncc3)c(-c3ccc(F)cc3)nn2c1.Cl [UNC10225321A]	3.59	14.14			67.03	114.41	DQ Intensity [3, 6]: 88.59; DQ Spot [3, 7]: 94.42
CC(C)c1ccc(O)cc1Nc1ccnc2ccc(C(F)(F)F)cc12 [UNC10225322A]	7.26	14.84			93.97	91.30	DQ Intensity [3, 6]: 103.64; DQ Spot [3, 7]: 104.80
O=C(Nc1cccc(-c2nn3ccccc3c2-c2ccnc(Nc3cccc(C(F)(F)F)c3)n2)c1)c1c(F)cccc1F [UNC10225325A]	6.17	14.69	102.24	131.00	71.36	61.45	
O=c1cc(N2CCOCC2)nc2n(Cc3cccc(F)c3)ccn12 [UNC10225332A]	6.97	15.66	100.57	98.19	128.93	95.52	
COc1ccc(-c2nc3n(c2-c2ccncc2)CCC3)cc1 [UNC10225334B]	9.58	11.14			75.67	89.36	DQ Intensity [3, 6]: 91.69; DQ Spot [3, 7]: 94.15
CC1=C(C(=O)Nc2cc3cn[nH]c3cc2F)C(c2ccc(C(F)(F)F)cc2)CC(=O)N1 (stereo not drawn) [UNC10225339A]	3.31	22.61	158.90	127.41	70.62	108.36	
Nc1ncnc2c1nc(-c1ccccc1)n2-c1ccccc1 [UNC10225340A]	8.74	8.63	122.27	108.09	115.76	115.47	
CCS(=O)(=O)c1ccc(OC)c(Nc2nccc(-c3c(-c4cccc(NC(=O)c5c(F)cccc5F)c4)nn4ncccc34)n2)c1 [UNC10225342A]	6.81	13.07	69.43	80.86	86.17	104.33	
O=c1cc(N2CCOCC2)nc2n(Cc3ccc(F)c(Cl)c3)ccn12 [UNC10225343A]	4.66	7.68	102.25	107.68	80.61	115.81	
C[C@@H](Oc1cc(-n2cnc3ccc(-c4ccncc4)cc32)sc1C(N)=O)c1ccccc1Cl [UNC10225348A]	10.36	36.52	133.73	158.98	91.16	41.11	
O=C(Nc1c(F)cccc1F)c1cc(C(=O)c2ccccc2F)c[nH]1 [UNC10225351A]							TFEB % ([1]; PKIS2 primary screen): 3.75%; TFE3 % ([2]; PKIS2 primary screen): 7.96%; DQ Intensity [3, 8]: 115.15; DQ Spot [3, 9]: 113.72; AK ([4]; PKIS2 primary screen): 106.59; Nuclear Count ([5]; PKIS2 primary screen): 134.69
OCCCNc1nccc(-c2c(-c3cccc(C(F)(F)F)c3)nn3cc(C(F)(F)F)ccc23)n1 [UNC10225352A]	4.95	11.93	93.14	97.34	111.75	112.73	
Cc1ccc(NC(=O)Nc2cc(C(C)(C)C)nn2-c2ccccc2)cc1 [UNC10225353A]	9.78	7.76	116.80	100.99	76.54	116.98	
Cc1ccccc1Cn1ccn2c(=O)cc(N3CCOCC3)nc12 [UNC10225355A]	2.12	15.51	95.37	115.18	91.19	89.36	
Cc1cccc(Nc2nc(N[C@H]3CCNC3)ncc2C(N)=O)c1.Cl [UNC10225356A]	10.40	8.51	128.58	110.55	117.33	97.71	
Cc1cc(-c2c(-c3ccc(F)cc3)ncn2CCCN2CCOCC2)nc(N)n1 [UNC10225357A]	6.16	18.76	102.69	106.97	146.53	103.52	
Clc1ccc(-c2nn3ncccc3c2-c2ccnc(Nc3ccc4c(c3)OCCO4)n2)cc1 [UNC10225358A]	8.16	11.64	88.44	98.66	157.53	125.14	
